Here are results for ten compounds from patent US4877776A, “K-252 compounds” (Kyowa Hakko Kogyo Co., Ltd., priority 1987, dated 1989).

A word on the IC50: it is the concentration needed to halve the response being measured.

≈ marks a conversion by molar mass, not a printed value. Like-named read-outs stand apart in the source and are kept apart here.

Assay [1] addresses C-kinase (protein kinase C). Description: C-Kinase inhibitory activity test. The format is biochemical. The note with it: concentration at which enzyme activity was inhibited 50%. On the procedure: (§1) Compound (I) obtained by the present invention was examined for C-kinase inhibitory activity and cell growth inhibitory activity by the following methods.
C-Kinase inhibitory activity test:
C-Kinase inhibitory activity of representative Compounds (I) was measured in accordance with the method of Y. Nishizuka, et al. [J. Biol. Chem., 257, 13341 (1982)]. The test was carried out on test compounds at varied concentrations, and the concentration at which the enzyme activity was inhibited 50% (IC50) was determined.

For assay [2], the system named is HeLaS3 cells (human uterine cervical cancer HeLa cells). Description: HeLaS3 cell growth inhibition test. The settings on record: read-out: IC50, HeLaS3 cell growth inhibitory activity. The format is cell-based. The protocol:
as §1
(§2) Cell growth inhibition tests:
(§3) MCF7 cells (4.5×10^4 cells/ml) pepared in RPMI 1640 medium containing 10% fetal calf serum, 10 μg/ml insulin and 10^-8 M estradiol are put into wells of a 96-well microtiter plate in the amount of 0.1 ml per each well. After incubation at 37° C. overnight in CO2 -incubator, 0.05 ml of a test sample appropriately diluted with the culture medium is added to each well. The cells are further cultured in CO2 -incubator, and then the culture supernatant is removed and the wells are washed once with PBS(-). Thereafter, 0.1 ml of fresh medium is added to each well, followed by culturing at 37° C. for 72 hours in CO2 -incubator. After the culture supernatant is removed, 0.1 ml of the culture medium containing 0.02% Neutral Red is added to each well, followed by culturing at 37° C. for one hour in CO2 -incubator, whereby the cells are stained. Then, the culture supernatant is removed and the cells are washed once with physiological saline. The pigment is extracted with 0.001N hydrochloric acid/30% ethanol and absorption is measured at 550 nm with a microplate reader. By comparing the absorption of intact cells with those of the cells treated with a test compound at known concentrations, the concentration of the test compound at which growth of the cells is inhibited 50% is calculated as IC50.
(2) HaLaS3 cell growth inhibition test:
HeLaS3 cells (3×10^4 cells/ml) prepared in MEM medium containing 10% fetal calf serum and 2 mM glutamine are put into wells of a 96-well microtiter plate in the amount of 0.1 ml per each well.
Thereafter, the test is carried out in the same manner as in (1).

The test system of assay [3] is MCF7 cells (human breast cancer cell MCF7). Description: MCF7 cell growth inhibition test. Format: cell-based. The settings on record: read-out: IC50, MCF7 cell growth inhibitory activity. On the procedure:
as §1, §2
(1) MCF7 cell growth inhibition test:
as §3

The subject of assay [4] is COLO320DM cells (human colon adenocarcinoma cell COLO320DM). Briefly: COLO320DM cell growth inhibition test. Format: cell-based. The note with it: COLO 320DM, read-out: IC50, COLO320DM cell growth inhibitory activity. The protocol: as §1, §2
(3) COLO320DM cell growth inhibition test:
COLO320DM cells (10^5 cells/ml) prepared in RPMI 1640 medium containing 10% fetal calf serum, 100 U/ml penicillin and 100 μg/ml streptomycin are put into wells of a 96-well microtiter plate in the amount of 0.1 ml per each well. Thereafter, the test is carried out in the same manner as in (1) except that the cells are counted with a microcell counter. By comparing the number of intact cells with those of the cells treated with a test compound at known concentrations, the concentration of the test compound at which growth of the cells is inhibited 50% is calculated as IC50.

The next assay has as its system histamine release. The settings on record: in words, from other filings; cited from earlier work.
For assay [5] the following is noted: in words, from other filing; cited from earlier work.
The test system of another assay is C-kinase. The settings on record: in words, cited from earlier work; for inhibitory activity against C-kinase: from literature or other filings; for specificity of C-kinase inhibition: from literature.
For assay [6] the following is noted: in words, from literature; cited from earlier work.
[7] abbreviates: HeLa S3, HeLaS3, Neutral Red, 72 hours.
Setting [8] is: COLO320DM, cells counted with a microcell counter, 72 hours.

In the case of `COC(=O)C1(O)CC2OC1(C)n1c3ccccc3c3c4c(c5c6ccccc6n2c5c31)C(=O)NC4O` (centres unmarked) [Compound 5], the “IC50, C-Kinase inhibitory activity” value in assay [1] came out at 1.2 µg/mL (≈ 2.48 µM). Further, the IC50 is 1.53 µg/mL (≈ 3.16 µM) in assay [2] (setting [7]); 0.8 µg/mL (≈ 1.65 µM) in assay [3] (MCF7, Neutral Red, 72 hours); 2.55 µg/mL (≈ 5.27 µM) in assay [4] (setting [8]).
On to `CCSC1NC(=O)c2c1c1c3ccccc3n3c1c1c2c2ccccc2n1C1CC(O)(CO)C3(C)O1` (centres unmarked) [Compound 7], for which the “IC50, C-Kinase inhibitory activity” value in assay [1] is 0.18 µg/mL (≈ 0.36 µM). Also, the IC50 in assay [2] (setting [7]) was 1.43 µg/mL (≈ 2.86 µM); in assay [3] (MCF7, Neutral Red, 72 hours), 5.08 µg/mL (≈ 10.2 µM); in assay [4] (setting [8]), 1 µg/mL (≈ 2 µM).
Take `COC(=O)C1(O)CC2OC1(C)n1c3ccccc3c3c4c(c5c6ccccc6n2c5c31)C(=O)NC4` (centres unmarked) [Compound K-252]: the “IC50, C-Kinase inhibitory activity” value in assay [1] was 0.016 µg/mL (≈ 0.0342 µM). Further, the IC50 in assay [2] (HeLa S3, 72 h) was 0.2 µg/mL (≈ 0.428 µM); in assay [3] (MCF7, 72 h) it was 0.51 µg/mL (≈ 1.09 µM); in assay [4] (72 h) it was 0.27 µg/mL (≈ 0.578 µM). Besides, the “activity to inhibit histamine release” value with histamine release is given as “activity to inhibit histamine release”. In assay [5], the anti-allergic activity result is “anti-allergic activity”.
Take `NCCCCCCNS(=O)(=O)c1cccc2c(Cl)cccc12` [Compound W-7, N-(6-aminohexyl)-5-chloro-1-naphthalenesulfonamide]: in the assay with C-kinase, the “inhibitory activity against C-kinase” value is listed as “low inhibitory activity against C-kinase” and the “specificity of C-kinase inhibition” value is given as “low specificity”.
In the case of `CC12OC(CC1(O)C(=O)O)n1c3ccccc3c3c4c(c5c6ccccc6n2c5c31)CNC4=O` (centres unmarked) [KT-5556], the “activity to inhibit histamine release” value in the assay on histamine release is reported as “activity to inhibit histamine release”.
For `CN[C@@H]1C[C@H]2O[C@@](C)([C@@H]1OC)n1c3ccccc3c3c4c(c5c6ccccc6n2c5c31)C(=O)NC4` [Staurosporine], in assay [6], the antibacterial activity result is “antibacterial activity”.
In the case of `CN(C)CCCN1c2ccccc2Sc2ccc(Cl)cc21` [chlorpromazine], in the assay on C-kinase, the “inhibitory activity against C-kinase” value was “low inhibitory activity against C-kinase” and the “specificity of C-kinase inhibition” value is on record as “low specificity”.
Take `ClCCN(Cc1ccccc1)Cc1ccccc1` [dibenamine]: in the assay on C-kinase, the “inhibitory activity against C-kinase” value is reported as “low inhibitory activity against C-kinase” and the “specificity of C-kinase inhibition” value is recorded as “low specificity”.
As to `CCCCNc1ccc(C(=O)OCCN(C)C)cc1` [tetracaine], in the assay with C-kinase, the “inhibitory activity against C-kinase” value is recorded as “low inhibitory activity against C-kinase” and the “specificity of C-kinase inhibition” value was “low specificity”.
For `CN1CCN(CCCN2c3ccccc3Sc3ccc(C(F)(F)F)cc32)CC1` [trifluoperazine], in the assay with C-kinase, the “inhibitory activity against C-kinase” value is reported as “low inhibitory activity against C-kinase” and the “specificity of C-kinase inhibition” value is given as “low specificity”.
